Consider one compound from patent US5670521A, “Reversal of multi-drug resistance by triphenyl-azacycloalkane derivatives” (Merrell Pharmaceuticals Inc., priority 1996, dated 1997).

The subject of the test is KBV1 cells. Conditions: KBV1 vs wild type KB cells. The procedure: The ability of compounds of this invention to reverse multi drug resistance can be determined using standard test procedures. The ability of the test compounds to inhibit the growth of multidrug resistant human epidermoid carcinoma (KBV1) cells in the presence of both Vinblastine and the compound was determined.

With `CC[C@]1(O)C[C@@H]2CN(CCc3c([nH]c4ccccc34)[C@@](C(=O)OC)(c3cc4c(cc3OC)N(C)[C@H]3[C@@](O)(C(=O)OC)[C@H](OC(C)=O)[C@]5(CC)C=CCN6CC[C@]43[C@@H]65)C2)C1` [Vinblastine], the “resistance to vinblastine compared to wild type KB cells” value is reported as “at least 1,000 times”.
